The term IC50 denotes the midpoint of a concentration-inhibition curve. Broadly, the % inhibition is the relative decrease from the control value, in per cent. The CC50 is the concentration giving 50% cytotoxicity. As a reminder, the EC50 is the concentration that produces a half-maximal response. Higher therefore signals weaker potency. For orientation: EC90 means the concentration at which the effect reaches the 90% level. Low readings indicate greater potency, high ones weaker potency. The inhibition is the change of the read-out against control, counted positive when it falls.

The values below come from US20170037078A1, “2' -DIS[…] FOR TREATMENT OF THE FL[…] OF VIRUSES AND CANCER” (Cocrystal Pharma, Inc., priority 2014, published 2017).

Data set [1] concerns Primary human bone marrow mononuclear cells. Nature of the data set: Bone Marrow Colony Forming Cell Assay (BFU-E). The data set is classed as cell-based. On the procedure: Primary human bone marrow mononuclear cells were obtained commercially from Cambrex Bioscience (Walkersville, Md.). CFU-GM assays were carried out using a bilayer soft agar in the presence of 50 units/mL human recombinant granulocyte/macrophage colony-stimulating factor, while BFU-E assays used a […] matrix containing 1 unit/mL erythropoietin (see Sommadossi J P, Carlisle R. Toxicity of 3′-azido-3′-deoxythymidine and 9-(1,3-dihydroxy-2-propoxymethyl) guanine for normal human hepatopoietic progenitor cells in vitro. Antimicrob. Agents Chemother. 1987; 31: 452-454; Sommadossi, J P, Schinazi, R F, Chu, C K, and Xie, M Y. Comparison of cytotoxicity of the (−) and (+) enantiomer of 2′,3′-dideoxy-3′-thiacytidine in normal human bone marrow progenitor cells. Biochem. Pharmacol. 1992; 44:1921-1925). Each experiment was performed in duplicate in cells from three different donors. AZT was used as a positive control. […] The 50% inhibitory concentration (IC50) was obtained by least-squares linear regression analysis of the logarithm of drug concentration versus BFU-E survival fractions. Statistical analysis was performed with Student's t test for independent non-paired samples.

Data set [2] relates to HepG2 cells. Nature of the data set: Mitochondrial toxicity assay: mitochondrial and nuclear DNA levels in HepG2 cells. The data set is classed as cell-based. The note with it: 14-day assay. On the procedure:
This assay was used in all studies described in this application that determine the effect of compounds on mitochondrial DNA content. In this assay, low-passage-number HepG2 cells were seeded at 5,000 cells/well in collagen-coated 96-well plates. Test compounds were added to the medium to obtain final concentrations of 0 μM, 0.1 μM, 10 μM and 100 μM. […] The mitochondrial cytochrome c oxidase subunit II (COXII) gene and the β-actin or rRNA gene were amplified from 5 μl of the eluted nucleic acids using a multiplex Q-PCR protocol with suitable primers and probes for both target and reference amplifications. […] For exon 3 of the […] gene (GenBank accession number E01094) the sense, probe, and antisense primers are 5′-[…]-3′, 5′-6-[…]-3′ and 5′-[…]-3′, respectively. The primers and probes for the rRNA gene are commercially available from Applied Biosystems. […] The arithmetic formula for this approach is given by 2-ΔΔCT, where ΔΔCT is (CT for average target test sample−CT for target control)−(CT for average reference test−CT for reference control) (see Johnson M R, K Wang, J B Smith, M J Heslin, R B Diasio. Quantitation of dihydropyrimidine dehydrogenase expression by real-time reverse transcription polymerase chain reaction. Anal. Biochem. 2000; 278:175-184). A decrease in mitochondrial DNA content in cells grown in the presence of drug indicated mitochondrial toxicity.

The test system of data set [3] is Vero. Nature of the data set: Cellular toxicity assay in Vero cells. The data set is classed as cell-based. On the procedure:
(§1) The toxicity of the compounds was assessed in Vero, human PBM, CEM (human lymphoblastoid), MT-2, and HepG2 cells, as described previously (see Schinazi R. F., Sommadossi J.-P., Saalmann V., Cannon D. L., Xie M.-Y., Hart G. C., Smith G. A. & Hahn E. F. Antimicrob. Agents Chemother. 1990, 34, 1061-67). Cycloheximide was included as positive cytotoxic control, and untreated cells exposed to solvent were included as negative controls. The cytotoxicity IC50 was obtained from the concentration-response curve using the median effective method described previously (see Chou T.-C. & Talalay P. Adv. Enzyme Regul. 1984, 22, 27-55; Belen'kii M. S. & Schinazi R. F. Antiviral Res. 1994, 25, 1-11).

In data set [4] the test system is Human PBM. Nature of the data set: Cellular toxicity assay in human PBM cells. The data set is classed as cell-based. The note with it: Human PBM cells. The method, then: as §1
The subject of data set [5] is HepG2 cells. The experiment in a line: Mitochondrial toxicity assay: lactic acid production in HepG2 cells. The note with it: 14-day assay. The data set is classed as cell-based. On the procedure:
To measure the effects of the compounds on lactic acid production, HepG2 cells from a stock culture were diluted and plated in 12-well culture plates at 2.5×10^4 cells per well. […] […] The culture medium was then filtered, and the lactic acid content in the medium was determined using a colorimetric lactic acid assay (Sigma-Aldrich). Since lactic acid product can be considered a marker for impaired mitochondrial function, elevated levels of lactic acid production detected in cells grown in the presence of test compounds would indicate a drug-induced cytotoxic effect. • ii) Effect of Compounds on Mitochondrial DNA Synthesis:

Data set [6] concerns Huh-7 cells. Nature of the data set: Cytotoxicity in HCV replicon assay (ΔCt rRNA). The note with it: HCV GT 1b replicon, Huh-7 cells. The data set is classed as cell-based. The method, then: (§2) Huh 7 Clone B cells containing HCV Replicon RNA were seeded in a 96-well plate at 5000 cells/well, and the compounds tested at 10 μM in triplicate immediately after seeding. Following five days incubation (37° C., 5% CO2), total cellular RNA was isolated by using versaGene RNA purification kit from Gentra. Replicon RNA and an internal control (TaqMan rRNA control reagents, Applied Biosystems) were amplified in a single step multiplex Real Time RT-PCR Assay. The antiviral effectiveness of the compounds was calculated by subtracting the threshold RT-PCR cycle of the test compound from the threshold RT-PCR cycle of the no-drug control (ΔCt HCV). A ΔCt of 3.3 equals a 1-log reduction (equal to 90% less starting material) in Replicon RNA levels. The cytotoxicity of the compounds was also calculated by using the ΔCt rRNA values. 2′-C-Me-C was used as the positive control. To determine EC90 and IC50 values^2, ΔCt: values were first converted into fraction of starting material^3 and then were used to calculate the % inhibition.

Data set [7] deals with HCV GT 1b replicon (Huh-7 cells). The experiment in a line: HCV Replicon Assay. The data set is classed as cell-based. The method, then: as §2
(In general: A replicon is a self-replicating genome or part of one, used to study replication in cells.)

The subject of data set [8] is CEM (human lymphoblastoid). The experiment in a line: Cellular toxicity assay in CEM cells. The data set is classed as cell-based. On the procedure:
as §1

Data set [9] can be described thus: Cellular toxicity assay in Vero cells. The note with it: African green monkey, read-out: Cytotoxicity, CC50. The data set is classed as cell-based. The method, then:
as §1

A short description of data set [10]: Cellular toxicity assay in human PBM cells. The data set is classed as cell-based. The note with it: human, human PBM cells; read-out: Cytotoxicity, CC50. On the procedure: as §1
Data set [11] can be described thus: Cytotoxicity in HCV replicon assay (ΔCt rRNA). The data set is classed as cell-based. The note with it: human, Huh-7 Clone B cells containing HCV GT 1b replicon RNA; HCV GT 1b replicon Huh-7 cells. The method, then: as §2
Data set [12] is described as follows: Cellular toxicity assay in CEM cells. The data set is classed as cell-based, human. The note with it: human, CEM lymphoblastoid cells, read-out: Cytotoxicity, CC50. On the procedure:
as §1

Entries after “also recorded” stand apart in the source; their conditions may differ. Read-outs that look alike come from different tables or passages of the source. Bounds are passed on as bounds.

For `Cc1cn([C@H]2C[C@H](N=[N+]=[N-])[C@@H](CO)O2)c(=O)[nH]c1=O` [AZT, reference compound], the concentration for half-maximal inhibition (IC50) was 0.3 µM in data set [1] (Donor 1) and 2.9 µM in [1] (Donor 2).
`O=c1ccn(C2OC(CO)C(O)C2(F)Cl)c(=O)[nH]1` (stereo not drawn) [Compound 10]: the “Summary (mitochondrial toxicity)” value in data set [2] was “non-toxic; also recorded: not toxic”. For the same molecule, the entries for the “% Inhibition MtDNA” value in [2] (10 μM) and in [2] (50 μM) were below 1% and <1/<1%, respectively. Besides, the figures for the “% Inhibition nDNA” value in data set [2] (10 μM) and in data set [2] (50 μM) were 8.76% and <1/<1%, respectively. Further, the “MtDNA Content (% of control)” value in data set [2] (10 μM) is 161 (113-230) % of control; in [2] (50 μM), 116 (77-175) % of control. Besides, the half-maximal inhibitory concentration (IC50) in [2] (read-out: IC50, MtDNA) was above 50 µM; in [2] (read-out: IC50, nDNA) it was above 50 µM. Also, the “% inhibition at maximum concentration evaluated” value is listed as −30.7% in data set [3], −4.1% in [4] and −48.1% in data set [8]. Besides, the half-maximal cytotoxic concentration (CC50) is above 100 µM in data set [3] (read-out: Cytotoxicity, CC50); above 100 µM in data set [4] (read-out: Cytotoxicity, CC50); above 10 µM in [6]; above 100 µM in [8] (read-out: Cytotoxicity, CC50). The entries for the “Lactic acid Production (% of control)” value in data set [5] (10 μM) and in data set [5] (50 μM) were 84.59 ± 7.30 % of control and 122.3 ± 5.80 % of control, respectively. Also, the EC50 in data set [7] is above 10 µM. The same molecule came in with an EC90 in [7] above 10 µM.
On to `CC(C)OC(=O)[C@H](C)NP(=O)(OC[C@H]1O[C@@H](n2ccc(=O)[nH]c2=O)C(F)(Cl)[C@H]1O)Oc1ccccc1` (stereo partly drawn) [Compound 12, (2S)-isopropyl-2-(((4-chloro-5-(2,4-dioxo-3,4-dihydropyrimidin-1 (2H)-yl-4-fluoro-3-hydroxytetrahydrofuran-2-yl)methoxy) (phenoxy)phosphoryl)amino)propanoate], for which the “Summary (mitochondrial toxicity)” value in data set [2] is on record as “non-toxic; also recorded: not toxic”. The “MtDNA Content (% of control)” value was 129 (117-143) % of control in data set [2] (10 μM) and 84 (68-102) % of control in [2] (50 μM). In addition, the inhibition at 10 µM in data set [2] (Homo sapiens, 336 h, 10 μM, read-out: % Inhibition MtDNA) is below 1%; in [2] (Homo sapiens, 336 h, 10 μM, read-out: % Inhibition nDNA), below 1%. Also, the inhibition at 50 µM was 27% in [2] (Homo sapiens, 336 h, 50 μM, read-out: % Inhibition MtDNA) and 12.8% in [2] (Homo sapiens, 336 h, 50 μM, read-out: % Inhibition nDNA). For the same molecule, the IC50 in data set [2] (Homo sapiens, 336 h, read-out: IC50, MtDNA) was above 50 µM; in data set [2] (Homo sapiens, 336 h, read-out: IC50, nDNA), above 50 µM; in data set [1] (Donor 2), above 100 µM; in data set [1] (Homo sapiens, Donor 1) it was above 100 µM. The CC50 in [9], in data set [10] and in data set [12] was above 100 µM each time. The “% inhibition at maximum concentration evaluated” value is given as 17.4% in data set [3], 36.2% in data set [4] and −4.8% in [8]. Also, the “Lactic acid Production (% of control)” value in [5] (10 μM) was 60.20 ± 1.25 % of control; in [5] (50 μM) it was 55.49 ± 0.88 % of control. Further, the half-maximal cytotoxic concentration (CC50) at 5 days in data set [11] is above 10 µM. The molecule further displayed a concentration giving a half-maximal response (EC50) in data set [7] (Hepatitis C virus, GT1B) of 0.1 to 1 µM. For the same molecule, the EC90 in data set [7] (Hepatitis C virus, GT1B) fell in the range of 0.1 to 1 µM.
With `Nc1ccn([C@H]2CC[C@@H](CO)O2)c(=O)n1` [ddC, reference compound], in data set [2], the “Summary (mitochondrial toxicity)” value is on record as “toxic”. In [2] (10 μM), the “% Inhibition MtDNA” value came to 95.5%, the “% Inhibition nDNA” value came to 52.6% and the “MtDNA Content (% of control)” value is 9.5 (5.7-16.0) % of control. In addition, in data set [2] (read-out: IC50, MtDNA), the IC50 is below 10 µM. Further, the IC50 in data set [2] (read-out: IC50, nDNA) was at most 10 µM. Also, in data set [5] (10 μM), the “Lactic acid Production (% of control)” value is 325.93 ± 27.05 % of control.
